In ChEMBL document CHEMBL3872261, “Coumarins and other fused bicyclic heterocycles with selective tumor-associated carbonic anhydrase isoforms inhibitory activity” (Bioorg Med Chem, 2017):

Key:
[1] = target: Carbonic anhydrase 1 (Homo sapiens, UniProt P00915); experiment: Inhibition of human recombinant carbonic anhydrase-1 preincubated for 6 hrs by stopped-flow CO2 hydration assay
[2] = target: Carbonic anhydrase 2 (Homo sapiens, UniProt P00918); experiment: Inhibition of human recombinant carbonic anhydrase-2 preincubated for 6 hrs by stopped-flow CO2 hydration assay
[3] = target: Carbonic anhydrase 9 (Homo sapiens, UniProt Q16790); experiment: Inhibition of human recombinant carbonic anhydrase-9 preincubated for 6 hrs by stopped-flow CO2 hydration assay
[4] = target: Carbonic anhydrase 12 (Homo sapiens, UniProt O43570); experiment: Inhibition of human recombinant carbonic anhydrase-12 preincubated for 6 hrs by stopped-flow CO2 hydration assay
Sequence of Carbonic anhydrase 12 (O43570 whole entry): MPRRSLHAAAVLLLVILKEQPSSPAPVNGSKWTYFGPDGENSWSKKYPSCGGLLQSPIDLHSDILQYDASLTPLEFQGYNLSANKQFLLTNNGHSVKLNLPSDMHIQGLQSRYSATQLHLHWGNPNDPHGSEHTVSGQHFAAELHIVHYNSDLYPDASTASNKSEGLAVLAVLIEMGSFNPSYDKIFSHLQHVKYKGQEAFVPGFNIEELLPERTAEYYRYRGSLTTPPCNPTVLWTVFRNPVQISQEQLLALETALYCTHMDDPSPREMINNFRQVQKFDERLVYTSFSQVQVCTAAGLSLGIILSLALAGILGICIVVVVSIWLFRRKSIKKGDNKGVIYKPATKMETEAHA

Sequence of Carbonic anhydrase 1 (P00915 whole entry): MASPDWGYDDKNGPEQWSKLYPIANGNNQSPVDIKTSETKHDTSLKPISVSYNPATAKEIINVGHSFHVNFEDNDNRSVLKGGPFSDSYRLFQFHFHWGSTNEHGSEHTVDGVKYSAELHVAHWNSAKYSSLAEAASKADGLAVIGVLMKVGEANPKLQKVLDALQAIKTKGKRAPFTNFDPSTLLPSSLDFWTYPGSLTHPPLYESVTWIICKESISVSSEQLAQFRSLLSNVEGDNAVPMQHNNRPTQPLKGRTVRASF

## O=C(Nc1ccccc1C(=O)Nc1ccc2c(C(F)(F)F)cc(=O)oc2c1)c1ccc(Cl)cc1
[1]
  Ki: > 500000 nM
[2]
  Ki: > 500000 nM
[3]
  Ki: 24.5 nM

## Cc1cc(=O)oc2cc(NC(=O)c3ccccc3NC(=O)c3ccc(F)cc3)ccc12
[1]
  Ki: > 500000 nM
[2]
  Ki: > 500000 nM
[3]
  Ki: 15.1 nM

## O=C1Nc2ccccc2S(=O)(=O)N1
[1]
  Ki: 783 nM
[2]
  Ki: 127 nM
[3]
  Ki: 87.4 nM

## O=c1[nH]cnc2ccccc12 [QUINAZOLINONE]
[2]
  Ki: > 500000 nM
[3]
  Ki: 15700 nM
[4]
  Ki: 10500 nM

## Cc1cc(=O)oc2cc(NC(=O)c3ccccc3NC(=O)c3ccccc3)ccc12
[1]
  Ki: > 500000 nM
[2]
  Ki: > 500000 nM
[3]
  Ki: 21.6 nM

## O=c1[nH]c(=O)c2cc([N+](=O)[O-])ccc2[nH]1
[1]
  Ki: > 500000 nM
[2]
  Ki: > 500000 nM
[3]
  Ki: 5470 nM

## Cc1cc(=O)oc2cc(NC(=O)c3ccccc3NC(=O)c3ccc(Cl)cc3)ccc12
[1]
  Ki: > 500000 nM
[2]
  Ki: > 500000 nM
[3]
  Ki: 18.4 nM

## CC1=Nc2ccccc2S(=O)(=O)N1
[1]
  Ki: 13800 nM
[2]
  Ki: 642 nM
[3]
  Ki: 349 nM

## O=C(Nc1ccccc1C(=O)Nc1ccc2c(C(F)(F)F)cc(=O)oc2c1)c1ccccc1
[1]
  Ki: > 500000 nM
[2]
  Ki: > 500000 nM
[3]
  Ki: 10.9 nM

## O=S1(=O)NC=Nc2ccccc21
[1]
  Ki: 12600 nM
[2]
  Ki: 378 nM
[3]
  Ki: 116 nM

## O=C(Nc1ccccc1C(=O)Nc1ccc2c(C(F)(F)F)cc(=O)oc2c1)c1ccc(F)cc1
[1]
  Ki: > 500000 nM
[2]
  Ki: > 500000 nM
[3]
  Ki: 20 nM
